Where two headings read alike, the source gives them in different places.
Tests used:
[1] = In vivo pharmacokinetic determination of compound (I), compound A and their metabolites in plasma; parameters: species or system New Zealand White Rabbits; details: both sexes, New Zealand White, male and female rabbit; for AUC(0-inf) / AUC(0-t) / Cmax / Tmax / MRT: rabbit, po, 10 mg/kg; for MRT: read-out: MRT (mean residence time)
Source text: In vivo pharmacokinetic determination of compound (I), compound A and their metabolites in New Zealand White Rabbits.
Male New Zealand rabbits (Crl: KBL (NZW), Charles River, France) and female New Zealand rabbits (NZW INRA A1077, Centre Lago) were used. Per compound (compound of formula (I) and compound A) one male and two female rabbits were used with a mean weight of 2.6±0.2 kg. A complete plasma concentration time-profile was obtained from each individual animal. Standard diet and tap water were available ad libitum. Compound of formula (I) and compound A were both dissolved in a 10% (w/v) SBE-B-CD (sulfobutyl ether-beta-cyclodextrin) research grade (Captisol) solution at a final concentration of 1 mg/ml. HCl and PVP K30 were added to facilitate dissolution of the compounds. After total dissolution, the pH was brought up to 2.6/2.7 with NaOH. The formulations were stored at room temperature, protected from light and analysed quantitatively with LC-MS/MS on the day of preparation. Stability of the formulations was checked on the day of dosing. Animals were dosed orally by gavage at 10 ml/kg to obtain a final dose of 10 mg/kg. From each individual dosed animal, blood samples were taken at 30 minutes, 1, 2, 4, 7 and 24 hours after oral administration. Blood was collected by multiple sampling from a lateral ear vein into Multivette® 600 K3E tubes (Sarstedt). Samples were placed immediately on melting ice and plasma was obtained following centrifugation at 4° C. for 10 minutes at approximately 1900×g. All samples were shielded from daylight and stored at ≤−18° C. prior to analysis. Plasma samples were analysed for compound (I), compound A, metabolite 1, metabolite 2, N-desmethyl metabolite 3 (which was calculated on the curve of N-desmethyl metabolite 4) and N-desmethyl metabolite 4 using a qualified research LC-MS/MS method. The key analytical performance (linearity, upper and lower limit of quantification, accuracy and precision) of the method was reported together with the plasma concentrations. The lower limit of quantification (LLOQ) for plasma was 1.00 ng/ml for all compounds. A limited pharmacokinetic analysis was performed using Phoenix™ Professional (Version 6.2.1). A non-compartmental analysis using the lin/log trapezoidal rule with lin/log interpolation was used for all data.

OCT2 (SLC22A2) = target: T1, OCT2 (SLC22A2) (Homo sapiens, UniProt O15244); assay: in vitro; format: cell-based
T1 construct: host or cells: Chinese Hamster Ovary (CHO) cells stably transfected with OCT2
T1 sequence (O15244 1-555): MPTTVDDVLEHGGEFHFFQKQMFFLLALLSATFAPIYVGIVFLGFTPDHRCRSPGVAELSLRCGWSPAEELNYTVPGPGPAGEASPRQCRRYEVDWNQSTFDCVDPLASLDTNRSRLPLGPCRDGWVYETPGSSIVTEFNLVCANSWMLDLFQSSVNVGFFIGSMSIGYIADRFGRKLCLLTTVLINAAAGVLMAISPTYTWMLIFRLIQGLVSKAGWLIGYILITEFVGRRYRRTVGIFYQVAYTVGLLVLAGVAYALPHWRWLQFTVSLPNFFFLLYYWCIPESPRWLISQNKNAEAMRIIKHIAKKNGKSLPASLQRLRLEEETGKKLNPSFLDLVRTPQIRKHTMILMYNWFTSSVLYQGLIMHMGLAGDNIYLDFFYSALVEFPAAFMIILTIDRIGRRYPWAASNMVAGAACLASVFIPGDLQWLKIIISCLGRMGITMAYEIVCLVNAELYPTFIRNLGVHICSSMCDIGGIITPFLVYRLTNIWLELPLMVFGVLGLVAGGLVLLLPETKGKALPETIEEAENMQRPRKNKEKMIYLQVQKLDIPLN
Description: This was tested using Chinese Hamster Ovary (CHO) cells, parental or stably transfected with OCT2. ^14C-Metformin was used as OCT2 substrate.
CHO cell lines, parental and stably transfected with OCT2 were obtained from Solvo Biotechnology (Hungary).
CHO cells were cultured in DMEM-F12 (Dulbecco's Modified Eagle Medium) supplemented with 0.03 mg/mL L-Proline, 1% L-Glutamine, penicillin (50-100 U/mL), streptomycin (50-100 μg/mL) and 10% (v/v) foetal calf or bovine serum (FCS) further referred to as “CHO culture medium”.
If needed, non-radiolabeled and radio-labeled compounds were mixed to obtain the proper chemical and radioactive concentration. Proper solvent controls were included.
Both, CHO parental and OCT2 cells were seeded into 24 well plates (1 mL/well, 400 000 cells/well) in CHO culture medium.
Transport experiments were performed in Hank's Balanced Salt Solution^+Ca,+Mg (HBSS^+/+) supplemented with 10 mM HEPES at pH 7.4. All media added to the cells and plates were kept at 37° C.
Before the incubation, the cells in each well were washed twice with 1 mL HBSS^+/++10 mM Hepes pH 7.4 at 37° C. Next, the incubation medium, containing reference substrate and the inhibitors (or inhibitor solvent) was added (250 μL/well).
At the time of dose administration (0 min), 150 μL of the dosing solution was sampled in triplicate for determination of initial concentrations by Liquid Scintillation Counting (LSC). During the incubation period, the plates were kept at 37° C.
To stop the reaction, 1.5 mL ice-cold HBSS^+/+ was added to each well and the liquids were aspirated. Again, to each well 2 mL ice-cold HBSS^+/+ was added and aspirated while keeping the plate angled. Following aspiration of the last well, all the wells were aspirated again taking care of not touching the cells.
To lyse the cells, 250 μL of Mammalian Protein Extraction Reagent (M-PER) lysis buffer was added to each well and the plates were shaken for at least 10 minutes (400 rpm). For LSC, a 150 μL sample/well was taken and for protein analysis a 25 μL sample/well. […]

SNU-5 = assay: Proliferation assay with Alamar blue, Snu-5 cells; format: cell-based; details: Homo sapiens, 96 h, 4 days incubation
Description: (§1) Inhibition of Proliferation of Cancer Cells Carrying Met Amplification and Dependent on Met Signaling by the Compound of Formula (I)
(§2) Proliferation Assay with Alamar Blue
(§3) Cells were seeded out in a 96-well plate in 180 μl growth medium. Depending on the growth curve test the amount of cells per well was different for each cell line. The cells were incubated overnight in an incubator at 37° C. in a humidified 5% CO2 atmosphere. The next day: The compound plate was prepared and 4 μl of compound was added to 196 μl of pre-warmed medium. 20 μl of this was added to 180 μl of cells. This was incubated for 4 days after adding the compound at 37° C. in a humidified 5% CO2 atmosphere. After the 4 days 40 μl of Alamar blue solution was added. This was incubated at 37° C. in a humidified 5% CO2 atmosphere for 4 hours (depending on the cell line this was tested before at different hours of incubation during the growth curve test). After the 4 hours the fluorescence was measured at excitation 530 nm, emission 590 nm. The fluorescence of control (DMSO treatment) was taken as 100% and the fluorescence of cells incubated with compounds was calculated against the control in %. So a dose response curve could be made and a IC50 could be calculated.

EBC1 = assay: Proliferation assay with Alamar blue, EBC-1 cells; format: cell-based; details: Homo sapiens, EBC-1, 96 h, 4 days incubation
Description: as §1, §2, §3

[2] = Pre-clinical toxicity tests of compound A in rat; format: in vivo
Description: (§4) [drawing 2] was explored in a phase I, first-in-human trial. […] Extensive additional pre-clinical experiments were performed to understand the nature of the renal effects. Metabolism data pointed into the direction of the rabbit to be a suitable toxicology species.

[3] = Phase I, first-in-human trial of compound A; format: in vivo
Description: The safety, pharmacokinetics, pharmacodynamics and initial efficacy of the potent and selective c-Met inhibitor with the following structure
as §4

[4] = Toxicology study of compound A in rabbit; format: in vivo
Description: as §4

[5] = Pre-clinical toxicity tests of compound A in dog; format: in vivo
Description: as §4

CHO OCT2 cells = assay: Cytotoxicity test (PrestoBlue viability), CHO OCT2 cells; format: cell-based, Chinese Hamster; details: after 1 minute of incubation, compound of formula (I) 100 μM, Triton X-100 1%
Description: (§5) Cytotoxicity of the compound of formula (I) was determined at 100 μM, and this in both CHO parental and OCT2 cells. Also a 1% Triton-X100 condition was included, as a positive control cytotoxic reagent. After 1 minute of incubation the supernatant was aspirated, the dry cells washed twice with 1 mL HBSS^+/++10 mM Hepes pH 7.4 (37° C.). After aspiration of the buffer, a 1/10 dilution of the PrestoBlue Viability Reagent (Life Technologies) in HBSS^+/++10 mM Hepes pH 7.4 was added and plates were incubated for 60 minutes at 37° C., protected from light. Each well was sampled (150 μL) in a black 96-well plate and fluorescence was measured (Excitation: 560 nm/12 nm bandwith, Emission: 590 nm/12 nm bandwith).

CHO Parental cells = assay: Cytotoxicity test (PrestoBlue viability), CHO parental cells; format: cell-based, Chinese Hamster; details: for cytotoxic effects (in words): 100 μM, both CHO parental and OCT2 cells; for Cell Viability %: CHO parental cells, after 1 minute of incubation, compound of formula (I) 100 μM, Triton X-100 1%
Description: as §5

[6] = Solubility of Metabolite 2; format: physicochemical
Source text: Solubility of Metabolite 2:

[7] = system: aldehyde oxidase / CYP450; assay: Metabolisation of compound of formula (I) compared to compound A
Source text: This may decrease renal toxicity.
In case of the present compound of formula (I) more of the N-desmethyl metabolite with the following structure is formed

[8] = single oral 10 mg/kg of compound A
[9] = single oral 10 mg/kg of compound (I)

Row | AUC(0-inf) [1, 8] [ng·h/mL] | AUC(0-t) [1, 8] [ng·h/mL] | Cmax [1, 8] [ng/mL] | Tmax [1, 8] [h] | MRT [1, 8] [h] | AUC(0-inf) [1, 9] [ng·h/mL] | AUC(0-t) [1, 9] [ng·h/mL] | Cmax [1, 9] [ng/mL] | Tmax [1, 9] [h] | MRT [1, 9] [h] | Compound | other results
1 | 1510 ± 190 | 1490 ± 193 | 299 ± 146 | 1.3 ± 0.6 | 5.7 ± 0.9 |  |  |  |  |  | FC(F)(c1ccc2ncccc2c1)c1nnc2ccc(-c3cn[nH]c3)nn12 [N-desmethyl metabolite 4, 6-{Difluoro[6-(1H-pyrazol-4-yl)[1,2,4]triazolo[4,3-b]pyridazin-3-yl]methyl}quinoline] | 
2 | 439 ± 331 | 341 ± 259 | 84.4 ± 55.9 | 1 | 5 ± 9 | 152 ± 81 | 127 ± 65 | 39.8 ± 13.1 | 0.8 ± 0.3 | 3.8 ± 0.7 | Cn1cc(-c2ccc3nnc(C(F)(F)c4ccc5[nH]c(=O)ccc5c4)n3n2)cn1 [Metabolite 2, 6-{Difluoro[6-(1-methyl-1H-pyrazol-4-yl)[1,2,4]triazolo[4,3-b]pyridazin-3-yl]methyl}quinolin-2(1H)-one] | half-life [1, 8]: 3 ± 0.5 h; solubility ([6]; pH 4.84, aqueous buffer): 1 µg/mL; solubility ([6]; pH 7.33, aqueous buffer): 2 µg/mL
3 |  |  |  |  |  | 2360 ± 450 | 2310 ± 392 | 738 ± 447 | 1.2 ± 0.8 | 5.1 ± 0.3 | [2H]c1ccc2cc(C(F)(F)c3nnc4ccc(-c5cn[nH]c5)nn34)ccc2n1 [N-desmethyl metabolite 3] | half-life [1, 9]: 4.4 ± 1.9 h
4 | 1050 ± 421 | 934 ± 336 | 126 ± 80 | 2.7 ± 1.2 | 7.8 ± 1.4 | 409 ± 7 |  | 57.5 ± 34.2 | 2.3 ± 1.5 | 7 ± 0.7 | O=c1ccc2cc(C(F)(F)c3nnc4ccc(-c5cn[nH]c5)nn34)ccc2[nH]1 [Metabolite 1, 6-{Difluoro[6-(1H-pyrazol-4-yl)[1,2,4]triazolo[4,3-b]pyridazin-3-yl]methyl}quinolin-2(1H)-one] | 

The next lines start with the compound.

Row | Compound | AUC(0-inf) [1, 8] [ng·h/mL] | AUC(0-t) [1, 8] [ng·h/mL] | Cmax [1, 8] [ng/mL] | Tmax [1, 8] [h] | MRT [1, 8] [h] | AUC(0-inf) [1, 9] [ng·h/mL] | AUC(0-t) [1, 9] [ng·h/mL] | Cmax [1, 9] [ng/mL] | Tmax [1, 9] [h] | MRT [1, 9] [h] | other results
5 | C=C[C@H]1C[N@@]2CC[C@H]1C[C@@H]2[C@@H](O)c1ccnc2ccc(OC)cc12 [Quinidine, reference compound] |  |  |  |  |  |  |  |  |  |  | inhibition at 1 min, 300 μM (OCT2 (SLC22A2); human, pH 7.4, inhibition of 14C-Metformin uptake): 85.5%
6 | Cn1cc(-c2ccc3nnc(C(F)(F)c4ccc5ncccc5c4)n3n2)cn1 [Compound A, reference compound] | 8220 ± 5740 | 8190 ± 5740 | 1830 ± 1360 | 1 | 5.2 ± 0.9 | 62.3 ± 47.8 | 53.7 ± 40.6 | 27.6 ± 17.4 | 0.5 | 3.24 ± 0.76 | IC50 (SNU-5): 13.8 nM; half-life [1, 9]: 2.1 ± 0.4 h; IC50 (EBC1): 13.4 nM; pre-clinical toxicity profile [2]: clean toxicity profile; toxicity finding in phase I, first-in-human trial [3]: unexpected renal toxicity; effect on renal function [4]: did affect renal function; histological analysis of kidney [4]: crystal formation with consequently degenerative and inflammatory changes in the kidney; pre-clinical toxicity profile [5]: clean toxicity profile
7 | Triton X-100 [reference compound] |  |  |  |  |  |  |  |  |  |  | Cell Viability % (CHO OCT2 cells): 0%; cytotoxic effects (in words) (CHO Parental cells): viability dropped dramatically; Cell Viability % (CHO Parental cells): 0%
8 | [2H]c1ccc2cc(C(F)(F)c3nnc4ccc(-c5cnn(C)c5)nn34)ccc2n1 [Compound of formula (I)] |  |  |  |  |  | 8570 ± 6440 | 8460 ± 6520 | 3570 ± 2320 | 0.5 | 4.6 ± 1 | IC50 (SNU-5): 13.2 nM; IC50 (OCT2 (SLC22A2)): 670 ± 20 nM; inhibition of the 14C-Metformin uptake in OCT2 cells (in words) (OCT2 (SLC22A2)): shows inhibition; IC50 (EBC1): 12 nM; formation of insoluble/less soluble aldehyde oxidase mediated metabolites [7]: down regulated; Cell Viability % (CHO OCT2 cells): 103%; cytotoxic effects (in words) (CHO Parental cells): no cytotoxic effects were observed; Cell Viability % (CHO Parental cells): 104%

— patent publication US10464939B2, “Deuterated triazolopyridazine as a kinase modulator” (Janssen Pharmaceutica NV, priority 2014, dated 2019)
